pIC50: −log10 of the molar value.
How the values were obtained:
K562 = experiment: Cytotoxicity against human K562 cells; assay type: functional, cell-based
V79 = experiment: Cytotoxicity against chinese hamster V79 cells by MTT assay; assay type: cell-based; conditions: Cricetulus griseus
Hepatocyte = experiment: Cytotoxicity against Wistar rat hepatocytes cells by MTT assay; assay type: cell-based

SMILES: CC(=O)O[C@@H]1CC2[C@@](C)(C(=O)O)CCC[C@@]2(C)[C@@H]2C[C@@H]3C4C[C@@]21C[C@]43C (stereo partly drawn)
- pIC50 (K562): 3.70
- pIC50 (V79): 3.65
- pIC50 (Hepatocyte): 3.64

— ChEMBL document CHEMBL1157973, “ent-Trachylobane diterpenoids from Xylopia langsdorffiana” (J Nat Prod, 2006)
